Experimental data reported in patent US12195427B2, “MASP-2 inhibitors and methods of use” (priority 2018, dated 2025).

Legend:
MASP-2 (CCP1-CCP2-SP) = MASP-2 (CCP1-CCP2-SP) (Homo sapiens (Human), UniProt O00187); assay: Enzymatic Assay for MASP-2 (fluorogenic substrate); format: biochemical
human α-thrombin = human α-thrombin (Homo sapiens (Human), UniProt P00734); assay: Enzymatic Assay for Thrombin (Boc-VPR-AMC); format: biochemical
MASP-2 CCP2-SP = MASP-2 CCP2-SP (Homo sapiens (Human), UniProt O00187); assay: MASP-2 co-crystallization, X-ray crystallography and structure analysis (H-bonds, van der Waals contacts); design: van der Waals contact distance, MASP-2 HIS 483 atom CD2 / van der Waals contact distance, MASP-2 HIS 483 atom NE2 / van der Waals contact distance, SER 654 C to compound atom / van der Waals contact distance, SER 654 O to compound atom / van der Waals contact distance, TRP 655 C to compound atom / van der Waals contact distance, MASP-2 GLY 528 atom CA / van der Waals contact distance TRP 655 atom CZ3 / van der Waals contact distance TRP 655 atom N / van der Waals contact distance TRP 655 atom CE3 / van der Waals contact distance GLY 656 atom C / van der Waals contact distance GLY 656 atom CA / van der Waals contact distance GLY 656 atom O / van der Waals contact distance, MASP-2 TYR 607 atom CD1 / van der Waals contact distance, MASP-2 PRO 606 atom O / d(C3,CA1) / d(CA1,N1)2 / d(H4,O1) / d(H4,O2) / d(O1,O2) / d(CA1,O2) / d(CA6,O1) / d(CA6,O2) / d(CA1,C5) / d(O2,H3) / d(N2,C2) / d(CA5,N2) / d(N2,C4) / d(N2,C6) / d(N2,CA3) / d(N2,O3) / d(O4,H2): unit not given beside the values; settings: for H-bond distance to MASP-2 GLY 656 atom O: GLY 656 O; for H-bond distance to MASP-2 SER 628 atom O: SER 628 O; for H-bond distance to MASP-2 SER 654 atom O: SER 654 O; for H-bond distance to MASP-2 SER 657 atom O: SER 657 O; for van der Waals contact distance GLY 656 atom C: MASP-2 GLY 656 C; for van der Waals contact distance SER 657 atom C: MASP-2 SER 657 C, columns c12-c13 (inferred);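 as to Ligand-pharmacophore element distance, pharmacophore element C2: distance from averaged pharmacophore element to bound ligand; missing value means element absent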;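 as to Ligand-pharmacophore element distance, pharmacophore element C3: distance from averaged pharmacophore element to bound ligand; missing value means element absent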;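 as to Ligand-pharmacophore element distance, pharmacophore element C4: distance from averaged pharmacophore element to bound ligand; missing value means element absent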;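 as to Ligand-pharmacophore element distance, pharmacophore element C5: distance from averaged pharmacophore element to bound ligand; missing value means element absent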
In short: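 Inhibitor complexes were obtained by soaking crystals of E. coli-derived human MASP-2 CCP2-SP. Synchrotron diffraction at 1.0 wavelength, molecular replacement and partial refinement gave the models; one pose per ligand was chosen for contact analysis.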

[1] = Table A2-9 second part, ARG 630, AA atoms N, NE, NH1
[2] = Table A5-1 pharmacophore: distance between elements, S2/S1 region
[3] = Table A5-2 pharmacophore distance, S3/S4 region
[4] = Table A7-1, between pharmacophore elements of the bound compound
[5] = Table A8-6, nearest protein atom in cell to the left

MASP-2 CCP2-SP, sequence (O00187 445-686): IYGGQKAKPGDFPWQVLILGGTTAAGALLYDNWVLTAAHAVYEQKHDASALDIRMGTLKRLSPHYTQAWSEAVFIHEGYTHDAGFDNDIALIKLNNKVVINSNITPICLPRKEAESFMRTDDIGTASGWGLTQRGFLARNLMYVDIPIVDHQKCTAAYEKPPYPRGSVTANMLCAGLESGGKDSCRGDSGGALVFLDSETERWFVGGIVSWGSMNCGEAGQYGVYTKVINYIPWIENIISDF
MASP-2 CCP2-SP, sequence (O00187 364-432 partner): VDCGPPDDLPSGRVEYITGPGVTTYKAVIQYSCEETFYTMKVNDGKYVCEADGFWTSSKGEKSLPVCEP
MASP-2 (CCP1-CCP2-SP), sequence (O00187 445-686): as the sequence (O00187 445-686) above

Compound: C[C@H](NC(=O)[C@H](N)CCc1cccc(Cl)c1)C(=O)NCc1ccc(C(=N)N)cc1 [compound 1081]
- Ki (MASP-2 (CCP1-CCP2-SP)): < 500 nM
- Ki (human α-thrombin): < 500 nM
- H-bond distance to MASP-2 GLY 656 atom O (MASP-2 CCP2-SP; Table A1 (H-Bonds)): 2.92
- H-bond distance to MASP-2 SER 628 atom O (MASP-2 CCP2-SP; Table A1 (H-Bonds)): 2.86
- H-bond distance to MASP-2 SER 654 atom O (MASP-2 CCP2-SP; Table A1 (H-Bonds)): 2.81
- H-bond distance to MASP-2 SER 657 atom O (MASP-2 CCP2-SP; Table A1 (H-Bonds)): 2.69
- van der Waals contact distance, MASP-2 HIS 483 atom CD2 (MASP-2 CCP2-SP; Table A2-1): 3.74
- van der Waals contact distance, MASP-2 PHE 529 atom CD1 (MASP-2 CCP2-SP; Table A2-3): 3.38
- van der Waals contact distance, MASP-2 amino acid atom to compound atom (MASP-2 CCP2-SP; Table A2-7 continued: CYS 629 (CA)): 3.8
- van der Waals contact distance, MASP-2 amino acid atom to compound atom (MASP-2 CCP2-SP; Table A2-9, ARG 630, AA atoms CG, CZ): 3.76
- van der Waals contact distance, MASP-2 amino acid atom to compound atom (MASP-2 CCP2-SP; [1]): 3.81
- van der Waals contact distance, VAL 653 CG1 to compound atom (MASP-2 CCP2-SP; Table A2-11): 3.84
- van der Waals contact distance GLY 656 atom C (MASP-2 CCP2-SP; Table A2-13): 3.27
- van der Waals contact distance TRP 655 atom N (MASP-2 CCP2-SP; Table A2-13, MASP-2 TRP 655 N): 3.83
- van der Waals contact distance TRP 655 atom O (MASP-2 CCP2-SP; Table A2-13, MASP-2 TRP 655 O): 3.8
- van der Waals contact distance GLY 656 atom O (MASP-2 CCP2-SP; Table A2-14, MASP-2 GLY 656 O): 3.81
- van der Waals contact distance SER 657 atom C (MASP-2 CCP2-SP; Table A2-14): 3.62
- Ligand-pharmacophore element distance, pharmacophore element C2 (MASP-2 CCP2-SP; Table A4-1, element C2): 0
- Ligand-pharmacophore element distance, pharmacophore element C3 (MASP-2 CCP2-SP; Table A4-1, element C3): 0
- Ligand-pharmacophore element distance, pharmacophore element C4 (MASP-2 CCP2-SP; Table A4-1, element C4): 1.99
- Ligand-pharmacophore element distance, pharmacophore element C5 (MASP-2 CCP2-SP; Table A4-1, element C5): 0
- Ligand-pharmacophore element distance, pharmacophore element C6 (MASP-2 CCP2-SP; Table A4-1, element C6): 0
- Ligand-pharmacophore element distance, pharmacophore element C7 (MASP-2 CCP2-SP; Table A4-1, element C7): 0
- Ligand-pharmacophore element distance, pharmacophore element CA1 (MASP-2 CCP2-SP; Table A4-1, element CA1): 0.48
- Ligand-pharmacophore element distance, pharmacophore element CA2 (MASP-2 CCP2-SP; Table A4-1, element CA2): 0.76
- Ligand-pharmacophore element distance, pharmacophore element CA3 (MASP-2 CCP2-SP; Table A4-1, element CA3): 0
- Ligand-pharmacophore element distance, pharmacophore element CA4 (MASP-2 CCP2-SP; Table A4-1, element CA4): 0
- Ligand-pharmacophore element distance, pharmacophore element CA5 (MASP-2 CCP2-SP; Table A4-1, element CA5): 0
- Ligand-pharmacophore element distance, pharmacophore element CA6 (MASP-2 CCP2-SP; Table A4-1, element CA6): 0
- d(CA1,N1) (MASP-2 CCP2-SP; [2]): 3.62
- d(CA1,O1) (MASP-2 CCP2-SP; [2]): 4.57
- d(CA1,O2) (MASP-2 CCP2-SP; [2]): 4.27
- d(H4,O1) (MASP-2 CCP2-SP; [2]): 5.10
- d(H4,O2) (MASP-2 CCP2-SP; [2]): 4.46
- d(O1,O2) (MASP-2 CCP2-SP; [2]): 3.45
- d(N2,C4) (MASP-2 CCP2-SP; [3]): 7.56
- d(N2,C4)4 (MASP-2 CCP2-SP; [3]): 7.56
- d(N2,CA2) (MASP-2 CCP2-SP; [3]): 6.05
- d(O2,H3) (MASP-2 CCP2-SP; [3]): 5.78
- d(O2,N2) (MASP-2 CCP2-SP; [3]): 2.76
- a(CA1, O1, O2) (MASP-2 CCP2-SP; Table A6-1 pharmacophore angle): 108.25
- a(O1, O2, H4) (MASP-2 CCP2-SP; Table A6-1 pharmacophore angle): 138.44
- A(N1, CA1, O1) a) (MASP-2 CCP2-SP; Table A6-1 pharmacophore angle, all compounds with protonatable center N1 except Methyl-amino-pyridine): 163.55
- a(O1, O2, H3) (MASP-2 CCP2-SP; Table A6-2 pharmacophore angle): 153.00
- a(O1, O2, N2) (MASP-2 CCP2-SP; Table A6-2 pharmacophore angle): 139.53
- a(O2, N2, C4) (MASP-2 CCP2-SP; Table A6-2 pharmacophore angle): 161.57
- a(O2, N2, C4) 2 (MASP-2 CCP2-SP; Table A6-2 pharmacophore angle): 119.80
- a(O2, N2, CA2) (MASP-2 CCP2-SP; Table A6-2 pharmacophore angle): 153.98
- Pharmacophore torsion angle a(H4, O1, O2, H3) (MASP-2 CCP2-SP; [4]): 36.36
- Pharmacophore torsion angle a(H4, O1, O2, N2) (MASP-2 CCP2-SP; [4]): 121.47
- Pharmacophore torsion angle a(N1, CA1, O2, H4) (MASP-2 CCP2-SP; [4]): −125.05
- Pharmacophore torsion angle a(O1, H4, O2, CA1) (MASP-2 CCP2-SP; [4]): −62.03
- Pharmacophore torsion angle a(O1, O2, N2, CA2) (MASP-2 CCP2-SP; Table A7-2, between pharmacophore elements of the bound compound): 142.86
- Pharmacophore protein distance to MET_658 (first MET_658 column) (MASP-2 CCP2-SP; Table A8-6, 6th residue column, nearest protein atom in cell to the left): 3.11
- Pharmacophore protein distance to MET_658 (second MET_658 column) (MASP-2 CCP2-SP; Table A8-6, 9th residue column, nearest protein atom in cell to the left): 3.70
- Pharmacophore protein distance to GLY_528 (MASP-2 CCP2-SP; [5]): 3.22
- Pharmacophore protein distance to PHE_529 (MASP-2 CCP2-SP; [5]): 3.23
- Pharmacophore protein distance to PRO_608 (MASP-2 CCP2-SP; [5]): 4.72
- Pharmacophore protein distance to SER_611 (MASP-2 CCP2-SP; [5]): 2.66
- Pharmacophore protein distance to TRP_655 (MASP-2 CCP2-SP; Table A8-6, pharmacophore elements C6, CA3, O3, H1, nearest protein atom in cell to the left): 3.69

Compound: C[C@H](NC(=O)[C@H]1Cc2c([nH]c3ccccc23)CN1)C(=O)NCc1ccc(C(=N)N)cc1 [compound 1097]
- Ki (MASP-2 (CCP1-CCP2-SP)): < 500 nM
- Ki (human α-thrombin): < 500 nM
- H-bond distance to MASP-2 ASP 627 atom OD2 (MASP-2 CCP2-SP; Table A1 (H-Bonds), ASP 627 OD2): 2.74
- H-bond distance to MASP-2 GLY 656 atom N (MASP-2 CCP2-SP; Table A1 (H-Bonds), GLY 656 N): 3.12
- H-bond distance to MASP-2 GLY 656 atom O (MASP-2 CCP2-SP; Table A1 (H-Bonds)): 2.98
- H-bond distance to MASP-2 SER 628 atom O (MASP-2 CCP2-SP; Table A1 (H-Bonds)): 3.03
- H-bond distance to MASP-2 SER 654 atom O (MASP-2 CCP2-SP; Table A1 (H-Bonds)): 2.81
- H-bond distance to MASP-2 SER 657 atom O (MASP-2 CCP2-SP; Table A1 (H-Bonds)): 2.74
- van der Waals contact distance, MASP-2 HIS 483 atom CD2 (MASP-2 CCP2-SP; Table A2-1): 3.63
- van der Waals contact distance, MASP-2 HIS 483 atom NE2 (MASP-2 CCP2-SP; Table A2-1): 3.53
- van der Waals contact distance, MASP-2 PRO 606 atom C (MASP-2 CCP2-SP; Table A2-4): 3.74
- van der Waals contact distance, MASP-2 PRO 606 atom CB (MASP-2 CCP2-SP; Table A2-4): 3.84
- van der Waals contact distance, MASP-2 PRO 606 atom CG (MASP-2 CCP2-SP; Table A2-4): 3.82
- van der Waals contact distance, MASP-2 PRO 606 atom O (MASP-2 CCP2-SP; Table A2-4): 3.33
- van der Waals contact distance, MASP-2 TYR 607 atom CA (MASP-2 CCP2-SP; Table A2-4): 3.79
- van der Waals contact distance, MASP-2 amino acid atom to compound atom (MASP-2 CCP2-SP; [1]): 3.71
- van der Waals contact distance, SER 654 C to compound atom (MASP-2 CCP2-SP; Table A2-11): 3.73
- van der Waals contact distance GLY 656 atom C (MASP-2 CCP2-SP; Table A2-13): 3.46
- van der Waals contact distance SER 657 atom C (MASP-2 CCP2-SP; Table A2-14): 3.52
